Measured values taken from ChEMBL document CHEMBL1201862, “PubChem BioAssay data set” (2004).
Activity calls are given as the source filed them.

Columns and labels:
ORF 73 = molecular target: T1, ORF 73 (Human herpesvirus 8, UniProt O40947); assay: inhibitors of C-LANA binding to LBS DNA, dose response, biochemical, fluorescence polarization, cherry-picked samples (AID 504725); parameters: species or system Human gammaherpesvirus 8;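 note: fluorescence polarization of a labeled DNA duplex reporting LANA DNA binding; potency is for inhibitors that block LANA binding to the DNA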
T1 sequence (O40947 whole entry): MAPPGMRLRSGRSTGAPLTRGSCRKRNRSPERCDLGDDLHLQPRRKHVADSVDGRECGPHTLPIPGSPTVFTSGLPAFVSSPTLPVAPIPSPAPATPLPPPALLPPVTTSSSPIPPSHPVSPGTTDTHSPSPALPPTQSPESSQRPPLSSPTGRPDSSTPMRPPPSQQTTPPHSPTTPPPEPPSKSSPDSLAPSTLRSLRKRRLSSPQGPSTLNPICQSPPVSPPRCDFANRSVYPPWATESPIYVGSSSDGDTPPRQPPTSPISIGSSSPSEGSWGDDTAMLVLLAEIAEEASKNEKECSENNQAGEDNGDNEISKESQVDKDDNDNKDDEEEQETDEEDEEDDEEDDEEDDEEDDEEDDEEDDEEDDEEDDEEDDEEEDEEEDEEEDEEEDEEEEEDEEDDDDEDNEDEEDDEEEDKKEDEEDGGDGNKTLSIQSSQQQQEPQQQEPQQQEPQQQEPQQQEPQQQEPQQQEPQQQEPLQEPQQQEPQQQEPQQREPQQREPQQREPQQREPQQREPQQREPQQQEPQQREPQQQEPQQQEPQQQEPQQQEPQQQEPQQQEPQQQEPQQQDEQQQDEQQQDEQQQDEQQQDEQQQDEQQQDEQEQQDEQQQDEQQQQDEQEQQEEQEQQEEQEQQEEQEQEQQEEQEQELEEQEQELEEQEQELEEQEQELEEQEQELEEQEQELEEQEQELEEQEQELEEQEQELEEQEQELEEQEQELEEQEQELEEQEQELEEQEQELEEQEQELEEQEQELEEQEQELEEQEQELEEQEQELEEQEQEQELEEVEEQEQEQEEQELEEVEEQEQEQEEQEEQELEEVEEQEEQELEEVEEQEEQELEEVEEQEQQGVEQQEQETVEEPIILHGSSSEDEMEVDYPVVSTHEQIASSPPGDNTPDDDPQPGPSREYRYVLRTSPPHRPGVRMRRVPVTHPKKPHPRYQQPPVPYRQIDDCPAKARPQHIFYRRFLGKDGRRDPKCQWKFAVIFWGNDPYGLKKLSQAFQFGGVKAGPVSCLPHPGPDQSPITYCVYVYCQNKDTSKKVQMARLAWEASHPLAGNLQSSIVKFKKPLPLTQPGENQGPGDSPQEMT

CHO = assay: cytotoxicity in TLR9-MyD88 CHO cells, dose response, cytotoxicity control for TLR9-MyD88 binding inhibitor project, cell-based, luminescence (AID 588339); assay type: functional, hamster; conditions: Cricetulus griseus;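 note: CHO cells stably coexpressing TLR9 and MyD88 fusions from primary screen; compound exposure lasted 48 hours before viability readout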
HeLa = assay: HeLa cell cytotoxicity, dose response, cytotoxicity control, 24 h, cherry-picked samples (AID 504726); assay type: functional, cell-based; conditions: Homo sapiens;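 note: potency for cytotoxicity as loss of luminescence signal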
Caspase-6 = molecular target: T2, Caspase-6 (Homo sapiens, UniProt P55212); assay: human caspase-6 inhibitors, dose response, biochemical, VEID-R110 fluorescence, cherry-pick (AID 720632)
T2 sequence (P55212 whole entry): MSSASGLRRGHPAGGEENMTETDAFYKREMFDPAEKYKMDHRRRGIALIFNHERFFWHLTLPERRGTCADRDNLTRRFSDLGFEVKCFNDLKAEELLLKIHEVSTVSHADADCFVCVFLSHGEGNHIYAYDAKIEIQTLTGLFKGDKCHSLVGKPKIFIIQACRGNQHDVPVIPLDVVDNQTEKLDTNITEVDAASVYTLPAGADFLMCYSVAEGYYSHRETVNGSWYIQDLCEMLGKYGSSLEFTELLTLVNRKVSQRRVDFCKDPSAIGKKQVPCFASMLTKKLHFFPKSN

[1] = luciferase reporter signal reduction – luminescence, H4-C neuroglioblastoma cells, dose response (AID 2458); assay type: functional, cell-based;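 note: H4 neuroglioblastoma cells stably carrying a luciferase reporter gene fusion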
cells = assay type: functional, cell-based
[2] = inhibitors of SNCA 5'UTR-driven translation, confirmation, luminescence, H4 neuroglioblastoma cells, dose confirmation (AID 2454); assay type: functional, cell-based;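 note: H4 neuroglioblastoma cells carrying an alpha-synuclein 5'UTR luciferase reporter; potency for inhibition of the luciferase signal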
[3] = Luminescence-based dose response cell-based high throughput screening assay for cytotoxic compounds using the IEC-6 intestinal epithelial cell line. [Related pubchem assays: 1858 (Summary AID.), 1825 (Counterscreen.), 1907 (Confirmation screen.)]; assay type: functional
[4] = Luminescence Cell-Based Dose Response HTS to Identify Inhibitors of 5'UTR Stem-Loop Driven Prion Protein mRNA Translation in H4 Neuroglioblastoma Cells. [Related pubchem assays: 1827 (Project Summary), 1813 (Primary HTS)]; assay type: functional
[5] = control 3'UTR Renilla luciferase suppression, dose response, counter-screen for Shn3 inhibitor project, cell-based, Clone20-Shn3RL, cherry-picked (AID 624133); assay type: functional
[6] = Shn3 3'UTR reporter inhibitors, dose response, cell-based, Clone20 osteoblasts, firefly luciferase, cherry-picked (AID 624132); assay type: functional;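 note: firefly luciferase luminescence from reporter carrying the Shn3 3'UTR in osteoblasts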
[7] = cytotoxicity in HEK-293T cells, dose response, cytotoxicity control for TCR NF-kB inhibitor project, luminescence, T-cell screen hits (AID 489026); assay type: functional, cell-based;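 note: cells exposed to compound about 14 hours before the viability readout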
[8] = molecular target: Scavenger receptor class B member 1 (Mus musculus, UniProt Q61009); assay: inhibitors of SR-BI mediated HDL lipid uptake, dose response, ldlA[mSR-BI] cells, fluorescence, cherry pick (AID 493194); assay type: functional, cell-based;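 note: cellular uptake of fluorescent DiI-labeled HDL measured as cell fluorescence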
[9] = inhibitors of SNCA 5'UTR-driven reporter translation, confirmation, H4 neuroglioma cells, luminescence (AID 1988); assay type: functional, cell-based
[10] = molecular target: Melanin-concentrating hormone receptor 1 (Homo sapiens, UniProt Q99705); assay: Fluorescence-based counterscreen for antagonists of the G-protein coupled receptor 7 (GPR7): cell-based high throughput dose response assay to identify antagonists of the melanin-concentrating hormone receptor 1 (MCHR1).; assay type: functional
[11] = molecular target: T3, Neuropeptides B/W receptor type 1 (Homo sapiens, UniProt P48145); assay: Fluorescence-based dose response cell-based high throughput screening assay to identify antagonists of the G-protein coupled receptor 7 (GPR7). [Related pubchem assays: 1952 (Screening assay (GPR7 antagonists).), 1880 (Summary AID.)]; assay type: functional
T3 sequence (P48145 whole entry): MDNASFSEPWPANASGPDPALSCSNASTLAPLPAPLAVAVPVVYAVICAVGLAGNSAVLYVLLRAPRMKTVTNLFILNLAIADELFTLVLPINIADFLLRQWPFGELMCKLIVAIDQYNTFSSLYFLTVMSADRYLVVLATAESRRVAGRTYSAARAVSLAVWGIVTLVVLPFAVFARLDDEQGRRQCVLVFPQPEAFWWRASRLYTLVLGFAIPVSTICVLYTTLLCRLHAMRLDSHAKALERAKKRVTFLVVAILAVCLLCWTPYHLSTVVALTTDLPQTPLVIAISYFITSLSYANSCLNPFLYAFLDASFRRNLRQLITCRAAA

[12] = molecular target: G-protein coupled receptor 55 (Homo sapiens, UniProt Q9Y2T6); assay: SAR Analysis of Selective Antagonists of GPR55 using an Image-Based Assay - Set 3. [Related pubchem assays (depositor defined):AID2058, AID2079]; assay type: functional
[13] = molecular target: T4, G-protein coupled receptor 35 (Homo sapiens, UniProt Q9HC97); assay: SAR analysis of Antagonists of the GPR35 Receptor using an Image-Based Assay - Set 5. [Related pubchem assays (depositor defined):AID2058, AID2079]; assay type: functional
[14] = molecular target: T4, G-protein coupled receptor 35; assay: SAR Analysis for the identification of Selective Antagonists of ERK1/2 Activity in GPR35-Overexpressing U2OS Cells - Set 2. [Related pubchem assays (depositor defined):AID2058, AID2079]; assay type: functional, cell-based
[15] = molecular target: T4, G-protein coupled receptor 35; assay: GPR35 antagonists blocking zaprinast-driven arrestin recruitment, primary screen, imaging, U2OS, beta-arrestin-GFP, zaprinast agonist (AID 2058); assay type: functional;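 note: antagonist potency meaning inhibition of agonist-induced arrestin redistribution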
[16] = molecular target: T5, Replicative DNA helicase DnaB (Mycobacterium tuberculosis, UniProt P9WMR3); assay: DnaB intein splicing inhibitors, dose response, biochemical, cell-free fluorescence (AID 449749); assay type: functional
T5 sequence (P9WMR3 whole entry): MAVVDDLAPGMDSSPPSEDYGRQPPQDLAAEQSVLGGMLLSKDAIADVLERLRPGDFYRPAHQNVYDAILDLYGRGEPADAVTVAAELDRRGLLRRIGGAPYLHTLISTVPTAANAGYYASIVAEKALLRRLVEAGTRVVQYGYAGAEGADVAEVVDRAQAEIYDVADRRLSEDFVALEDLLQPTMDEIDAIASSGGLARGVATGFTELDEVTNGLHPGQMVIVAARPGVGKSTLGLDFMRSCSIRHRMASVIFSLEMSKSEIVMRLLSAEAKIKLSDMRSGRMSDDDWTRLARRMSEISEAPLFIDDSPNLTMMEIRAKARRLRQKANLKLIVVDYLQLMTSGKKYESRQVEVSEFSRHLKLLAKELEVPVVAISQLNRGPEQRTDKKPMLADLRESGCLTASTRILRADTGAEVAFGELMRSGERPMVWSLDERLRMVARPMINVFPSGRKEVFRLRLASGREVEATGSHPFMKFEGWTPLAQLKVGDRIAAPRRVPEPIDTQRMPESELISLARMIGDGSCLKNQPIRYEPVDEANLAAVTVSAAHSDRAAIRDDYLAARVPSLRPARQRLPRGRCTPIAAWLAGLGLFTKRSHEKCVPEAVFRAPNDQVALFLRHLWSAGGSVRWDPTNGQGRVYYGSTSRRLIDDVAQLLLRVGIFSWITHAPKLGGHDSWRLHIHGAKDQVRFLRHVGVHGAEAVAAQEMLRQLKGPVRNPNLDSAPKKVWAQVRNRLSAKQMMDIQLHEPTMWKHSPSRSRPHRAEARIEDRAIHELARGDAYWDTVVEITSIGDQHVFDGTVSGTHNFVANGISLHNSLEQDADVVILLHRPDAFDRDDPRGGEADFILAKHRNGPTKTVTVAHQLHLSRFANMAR

Protein RecA = molecular target: T6, Protein RecA (Mycobacterium tuberculosis, UniProt P9WHJ3); assay: Fluorescence Cell-Free Homogeneous Dose Retest to Identify Inhibitors of RecA-Intein Splicing Activity. [Related pubchem assays (depositor defined):AID2097, AID2223, AID489010, AID492950]; assay type: functional
T6 sequence (P9WHJ3 whole entry): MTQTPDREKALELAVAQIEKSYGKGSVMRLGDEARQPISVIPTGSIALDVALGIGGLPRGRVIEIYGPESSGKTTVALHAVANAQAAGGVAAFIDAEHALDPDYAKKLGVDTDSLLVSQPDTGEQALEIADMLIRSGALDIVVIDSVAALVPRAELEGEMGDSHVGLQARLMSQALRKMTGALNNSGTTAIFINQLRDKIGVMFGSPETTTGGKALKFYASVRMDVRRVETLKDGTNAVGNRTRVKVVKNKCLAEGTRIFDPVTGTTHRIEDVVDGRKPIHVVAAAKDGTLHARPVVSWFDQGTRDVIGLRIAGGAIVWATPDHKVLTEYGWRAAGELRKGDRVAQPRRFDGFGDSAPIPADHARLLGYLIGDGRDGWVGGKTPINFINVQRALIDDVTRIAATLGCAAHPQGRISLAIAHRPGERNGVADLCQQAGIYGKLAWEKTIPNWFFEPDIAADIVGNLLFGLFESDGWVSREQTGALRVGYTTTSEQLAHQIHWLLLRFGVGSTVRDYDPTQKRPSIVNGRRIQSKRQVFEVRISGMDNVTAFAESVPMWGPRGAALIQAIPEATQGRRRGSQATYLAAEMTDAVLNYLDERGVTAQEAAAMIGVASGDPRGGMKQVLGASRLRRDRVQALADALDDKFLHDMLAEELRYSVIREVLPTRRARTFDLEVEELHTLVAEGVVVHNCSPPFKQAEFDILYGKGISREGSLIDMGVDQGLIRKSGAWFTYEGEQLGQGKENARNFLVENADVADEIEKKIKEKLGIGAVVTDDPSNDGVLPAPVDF

T4 sequence (Q9HC97 whole entry): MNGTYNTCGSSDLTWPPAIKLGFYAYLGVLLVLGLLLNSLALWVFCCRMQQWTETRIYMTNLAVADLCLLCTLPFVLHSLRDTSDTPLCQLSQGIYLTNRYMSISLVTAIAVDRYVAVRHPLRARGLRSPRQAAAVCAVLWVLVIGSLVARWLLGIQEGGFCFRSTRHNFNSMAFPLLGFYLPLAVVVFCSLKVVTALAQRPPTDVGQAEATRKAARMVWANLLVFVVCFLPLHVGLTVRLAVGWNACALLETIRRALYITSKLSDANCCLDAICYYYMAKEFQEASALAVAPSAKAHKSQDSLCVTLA
Scavenger receptor class B member 1, sequence (Q61009 whole entry): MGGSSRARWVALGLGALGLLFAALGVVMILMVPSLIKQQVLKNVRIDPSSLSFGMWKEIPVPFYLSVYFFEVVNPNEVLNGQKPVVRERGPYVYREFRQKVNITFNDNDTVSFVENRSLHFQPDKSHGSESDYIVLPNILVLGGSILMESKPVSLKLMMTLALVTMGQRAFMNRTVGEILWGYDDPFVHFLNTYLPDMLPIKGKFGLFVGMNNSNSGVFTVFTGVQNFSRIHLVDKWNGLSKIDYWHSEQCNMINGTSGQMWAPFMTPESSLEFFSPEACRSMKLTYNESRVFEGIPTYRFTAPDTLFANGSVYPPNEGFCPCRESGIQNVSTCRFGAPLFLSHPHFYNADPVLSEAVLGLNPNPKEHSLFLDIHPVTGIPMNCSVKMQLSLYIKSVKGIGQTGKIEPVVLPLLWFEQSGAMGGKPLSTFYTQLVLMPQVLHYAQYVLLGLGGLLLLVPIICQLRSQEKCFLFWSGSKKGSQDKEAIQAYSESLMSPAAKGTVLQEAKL
G-protein coupled receptor 55, sequence (Q9Y2T6 whole entry): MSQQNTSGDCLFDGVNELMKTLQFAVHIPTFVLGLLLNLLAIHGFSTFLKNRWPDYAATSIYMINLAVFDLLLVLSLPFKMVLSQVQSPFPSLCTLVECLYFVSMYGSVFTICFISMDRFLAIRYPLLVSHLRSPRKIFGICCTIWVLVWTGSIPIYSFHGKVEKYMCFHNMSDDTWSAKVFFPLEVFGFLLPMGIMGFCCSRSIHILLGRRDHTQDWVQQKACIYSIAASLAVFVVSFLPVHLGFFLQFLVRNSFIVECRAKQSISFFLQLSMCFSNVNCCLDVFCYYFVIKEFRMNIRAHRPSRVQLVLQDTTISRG
Melanin-concentrating hormone receptor 1, sequence (Q99705 whole entry): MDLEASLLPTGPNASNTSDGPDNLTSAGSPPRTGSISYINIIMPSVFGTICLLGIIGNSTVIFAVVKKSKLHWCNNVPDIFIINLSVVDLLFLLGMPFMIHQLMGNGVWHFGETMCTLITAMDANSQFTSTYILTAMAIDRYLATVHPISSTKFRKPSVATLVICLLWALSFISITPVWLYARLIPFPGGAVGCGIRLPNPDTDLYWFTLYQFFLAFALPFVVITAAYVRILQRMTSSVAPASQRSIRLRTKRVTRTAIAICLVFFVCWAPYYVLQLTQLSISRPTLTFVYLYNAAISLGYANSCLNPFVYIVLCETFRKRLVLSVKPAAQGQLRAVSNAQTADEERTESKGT

Cc1ccc(C(=O)O)cc1N1C(=O)c2cccc3c([N+](=O)[O-])ccc(c23)C1=O
AC50 (ORF 73): 35 µM (active)
IC50 (CHO): 22.4 µM (inactive)
AC50 (HeLa): 67.1 µM (active)
AC50 (Caspase-6): 10.3 µM (active)

CCCCCOC(=O)c1[nH]c2c(c1C)C(=O)CC(c1ccco1)C2 (configuration not stated)
EC50 [1]: 0.198 µM (active)
EC50 (cells): 0.179 µM (active)
EC50 [2]: 0.133 µM (active)
IC50 [3]: 0.101 µM (active)
EC50 [4]: 9.81 µM (active)
AC50 [5]: 3.96 µM (active)
AC50 [6]: 1.49 µM (active)
IC50 [7]: > 80 µM (inactive)
AC50 [8]: 33.3 µM (active)
EC50 [9]: < 0.1 µM (active)

Cc1ccccc1CN1C(=O)c2ccccc2Sc2ccc(C(=O)NCCCN3CCOCC3)cc21
IC50 [10]: 12.1 µM (not active)
IC50 [11]: 8.23 µM (active)

COC(=O)c1cnn(-c2ccc(F)cc2F)c1/C=N/NC(=S)Nc1ccc(Cl)cc1
IC50 [12]: > 32 µM (inactive)
IC50 [13]: 0.171 µM (active)
IC50 [14]: 1.69 µM (active)

CC1(CC(=O)N/N=C/c2ccc(OCc3ccc(Cl)cc3Cl)cc2)OCCCO1
IC50 [15]: < 0.5 µM (active)
AC50 [16]: 3.09 µM (active)
EC50 (Protein RecA): 11.1 µM (active)
